Laboratory results as given in patent US11850266B2, “Cardiomyocytes and compositions and methods for producing the same” (President and Fellows of Harvard College, priority 2019, dated 2023).
Entries after “also recorded” stand apart in the source; their conditions may differ.

Tests used:
Format in all cases: cell-based, human
[1] = test system: iPSC-derived cardiomyocytes; experiment: Flow cytometry (TNNT2+ purity, MFI of TNNT2 and Kir2.1) and cell counts
Description: To prepare for differentiation, iPSCs were plated at a density between 20,000 to 80,000 cells (depending on the cell line) per well of a 12-well plate at four days prior to onset of differentiation. Cells were differentiated according to the protocol previously described by Lian et al. with some modifications (FIG. 1A) (1). Basal media was changed from StemFlex to RPMI/B27 on day 0 of differentiation. The GSK3 inhibitor, CHIR99021 (6 μM), was added for 48 hours from day 0 to day 2 of differentiation when cells were approximately 70-80% confluent. The Wnt antagonist IWP4 (5 μM) was added from days 2 to 4 of differentiation. Insulin (10 μg/ml) was added to the media starting on day 7 of differentiation, and media was changed every 2-3 days. In general, higher purity (TNNT2+) cardiomyocytes were observed when beating initiated prior to day 10 of differentiation, therefore only batches with onset of beating between days 7-10 of differentiation were included in this study. Beating cardiomyocytes were treated with Torin1 (200 nM, unless otherwise noted) or vehicle (0.02% dimethylsulfoxide (DMSO)) beginning at ˜2 days after onset of beating for 7 days (media changed with fresh Torin1 or DMSO every 2-3 days), unless otherwise noted. After Torin1 treatment, media was switched back to RPMI/B27/insulin and maintained with media change every 2-3 days until endpoint assay. In a few assays, fatty acids were added in the form of chemically defined lipids (Gibco) diluted 1:1000 simultaneous with Torin1 treatment. In some other assays, fetal bovine serum (10% FBS) was added to cells after completion of Torin treatment for 2-4 days.
Cells were dissociated and 5×10^5 to 1×10^6 cells were used per condition. For cell cycle analysis, 5×10^5 cells per condition were fixed in 70% cold ethanol for at least 2 hours to overnight at −20 degrees C. Cells were stained first with AlexaFluor 647-TNNT2 in Permeabilization Buffer (Thermo) then with Hoechst 33342 (2 μg/ml) and pyronin Y (4 μg/ml) for 20 minutes to distinguish between cells in G0, G1, and S-G2-M phases. For other stains, cells were fixed in eBioscience Intracellular Fixation buffer for 30 minutes followed washing twice in eBioscience Permeabilization Buffer and stained with the appropriate primary antibody (Table 2) in eBioscience FACS Staining buffer for 30-60 minutes. If a secondary antibody was used, cells were incubated with the appropriate secondary antibody (Table 2) for 30-60 minutes. The geometric mean fluorescence intensity (MFI) was quantified for TNNT2 and Kir2.1 antibodies. Data were acquired via a BD LSRII instrument and analyzed using FlowJo software.

[2] = test system: BJRiPS-derived cardiomyocytes; experiment: Example 3 preliminary qPCR of maturation genes in BJRiPS-derived cardiomyocytes
Description: The BJRiPS cell line was used to generate preliminary data. BJRiPS cells were differentiated into cardiomyocytes according to previously published protocols (6). After the onset of beating (around day 10), cardiomyocytes were treated with vehicle (DMSO) or different concentrations of rapamycin, Torin1, or Torin2 for different time periods. Beating rate was counted manually. Some cells were harvested after 5-7 days of treatment for flow cytometry analysis. Other cells were harvested after 7 days of treatment for qPCR.

[3] = test system: iPSC-derived cardiomyocytes; experiment: Mitochondrial DNA to nuclear DNA ratio, MitoTracker and MitoProbe JC-1 assays
Description: The mitochondrial DNA to nuclear DNA ratio was quantified with qPCR. DNA was extracted from cardiomyocytes using the PureLink genomic DNA mini kit (Invitrogen). Primers for DNA to mitochondrial gene NADH dehydrogenase 1 (ND1) and nuclear gene lipoprotein lipase gene (LPL) were used (10).
Live iPSC-derived cardiomyocytes were stained using MitoTracker Green FM (Invitrogen) or the MitoProbe JC-1 assay kit (Invitrogen) according to the manufacturer's instructions. Cells were evaluated by flow cytometry and mean fluorescence intensity (MFI) of all live cells was quantified. For JC-1, the ratio of red to green MFI for vehicle versus Torin1-treated cells was quantified and normalized to control.

[4] = test system: GCaMP-derived cardiomyocytes; experiment: Cardiomyocyte purity (% TNNT2+) in 3D suspension culture; details: Torin1 24 hours from day 9, assay day 10; ~70% TNNT2+ with the protocol
Description: Cardiomyocyte differentiation of iPSCs in suspension culture. The suspension differentiation protocol outlined by Kempf et al (79) will be used with some modifications. 30 ml and 125 ml disposable spinner flasks are set on a spinner plate capable of rotation speeds between 40-70 rpm placed in a 37° C., 5% CO2 incubator. Cells are seeded at 750,000 cells/ml and allowed to grow for 4 days in maintenance media until spheroids are approximately 300 μm in diameter, then differentiation is initiated with 7.5 μM CHIR99021. On day 2 of differentiation, CHIR is removed from the media and the Wnt pathway inhibitor IWP4 (5 μM) is added to the media, on day 4 of differentiation, IWP4 is removed from the media, and from day 7 onward, insulin is included in the media. […] Differentiation conditions will be optimized with all five cell lines (BJRiPS-A, DiPS 1016 SevA, GCaMP, Gibco, UCSD142i-86-1). Cardiomyocyte purity will be quantified with flow cytometry detecting TNNT2+ cells.
An example of a differentiation protocol for generating cardiomyocytes from iPSCs in suspension culture is detailed as follows. 30 ml and 125 ml disposable spinner flasks were used and were set on a spinner plate capable of rotation speeds between 40-70 rpm, where the spinner plate is placed in a 37° C., 5% CO2 incubator. […] Cardiomyocyte purity will be quantified with flow cytometry detecting TNNT2+ cells.

[5] = test system: mTORC1 (S6K) and mTORC2 (Akt); experiment: Western analysis of phosphorylation downstream of mTORC1 and mTORC2 in iPSC-derived cardiomyocytes
Description: Cells were lysed with lysis buffer (1% Triton X, 0.35% Na-deoxycholate, 1 mM EDTA, 1% protease inhibitor cocktail (Sigma), 1% phosphatase inhibitor cocktail 2 (Sigma), 1% phosphatase inhibitor cocktail 3 (Sigma), 1 mM phenylmethylsulfonyl fluoride (PMSF)) and total protein was measured with the Pierce BCA Protein Assay Kit. Samples with equal total protein quantities (prepared in Laemmli Sample Buffer (Bio-Rad)) were loaded into a Mini-Protean TGX Precast Gel (Bio-Rad) and electrophoresed for 1 hour at 100 V before transfer to a PVDF membrane using the Trans-Blot Turbo Transfer System (Bio-Rad). The Precision Plus Protein Dual Color Standards molecular weight ladder was used to estimate molecular weight of detected bands (Bio-Rad). Membranes were blocked with 5% milk or bovine serum albumin then incubated with the primary antibody (Table 2) overnight at 4 degrees C. followed by incubation with the horseradish peroxidase-conjugated secondary antibody (Table 2) for 1 hour at room temperature. The Amersham ECL Western Blotting Detection kit was used to detect the protein signal by chemiluminescence, and band densities were quantified using ImageJ software (NIH).

[6] = Torin1 10, 50, 200 nM, days 11-18, FIG. 32
[7] = Torin1 200 nM 7 days, BJRiPS-CMs

In the case of `CCC(=O)N1CCN(c2ccc(-n3c(=O)ccc4cnc5ccc(-c6cnc7ccccc7c6)cc5c43)cc2C(F)(F)F)CC1` [Torin1], the “Torin1-induced increase in TNNT2 MFI after 10% FBS” value ([1]; 10% FBS 2 days after completion of Torin1, UCSD-CMs, FIG. 2I) is reported as “reversed”, the “TNNT2 MFI with shorter (5 days) or later (starting 10 days after initiation of beating) treatment” value ([1]; FIGS. 10, 11) is reported as “beneficial effects on TNNT2 MFI” and the “MFI of extracellular Kir2.1 by flow cytometry” value ([1]; Torin1 7 days, BJRiPS, FIG. 4B) is reported as “significantly increased”. For the same compound, the “TNNT2 MFI by flow cytometry” value ([1]; Torin1 7 days, Gibco iPS-CMs, FIG. 2C) was “dose-dependent increase”, the “absolute numbers of cells per well” value ([1]; Torin1 from day 9, 12 well plate, BJRiPS-CMs, FIG. 1C) was “non-significant trend toward decreased absolute numbers of cells per well” and the “purity of TNNT2+ cells” value ([1]; non-significant trend, Gibco iPS-CMs, FIG. 1D) was “increased purity of TNNT2+ cells”. For the same compound, the “TNNT2 protein by mean fluorescence intensity (flow cytometry)” value ([1]; three cell lines (BJRiPS, GCaMP, Gibco), FIG. 18E) was “significant increase in protein expression of TNNT2”, the “RNA expression of ryanodine receptor (RyR) and SCN5a” value ([2]; FIG. 32) was “trend toward increased RNA expression” and the “TNNI3 gene expression increase” value ([2]; Torin1 200 nM (highest dose tested), FIG. 30) was ~10 fold. For the same compound, the “RNA expression of TNNT2, TNNI3, MYH6, MYH7” value ([2]; Torin1 10, 50, 200 nM, days 11-18, FIG. 30) was “increased RNA expression of these proteins in a dose dependent manner”, the KCNJ2 expression [2, 6] was “trend toward a dose-dependent increase” and the “ion channel gene expression (KCNJ2, HCN4, SCN5a, RYR2, CACNA1c, SERCA2a)” value [2, 6] was “Ion channel gene expression increased”. For the same compound, the “NPPB (BNP) mRNA expression” value ([2]; Torin1 10, 50, 200 nM, days 11-18, FIG. 33) was “increased”, the “PGC1-alpha (PPARGC1a) mRNA expression” value ([2]; Torin1 10, 50, 200 nM, days 11-18, FIG. 35) was “increased expression” and the REST/NRSF expression ([2]; dose-dependent, Torin1 10, 50, 200 nM, FIG. 34) was “increases gene expression for REST”. For the same compound, the “RNA expression of markers of maturation including TNNI3 and KCNJ2” value ([2]; preliminary data, after differentiation) was “increased RNA expression”, the “MFI of MitoTracker by flow cytometry” value [3, 7] was “decreased MFI” and the “mitochondrial to nuclear DNA ratio” value [3, 7] was “decreased”. The “mitochondrial membrane polarization (MitoProbe JC-1 red:green ratio)” value ([3]; Torin1 1 week, FIG. 3E) was “significant increase in mitochondrial membrane polarization”, the “% TNNT2+ cardiomyocyte purity in 3D suspension culture” value [4] was “trend toward higher purity; also recorded: trend toward higher % TNNT2+ cells” and the “phosphorylation of AMP kinase (AMPK)” value ([5]; Torin1 200 nM, 0-48 h, BJRiPS-CMs, FIG. 17B) was “increased phosphorylation of AMP kinase (AMPK)”. The “phosphorylation of S6K and Akt” value ([5]; Torin1 200 nM, single treatment, 0-48 h, BJRiPS-CMs) was “acutely decreased phosphorylation of both S6K and Akt” and the “phosphorylation of ribosomal protein S6” value ([5]; Torin1 10, 50, 200 nM at days 25-29 after lactate enrichment, FIG. 28) was “decreased phosphorylation of S6”.
